Assay results from US8945540B2, “Compositions for enhancing the antibacterial activity of myeloperoxidase and methods of use thereof” (Exoxemis, Inc., priority 2008, dated 2015).
Read-outs that look alike come from different tables or passages of the source.

How the values were obtained:
Staphylococcus aureus [1] = test: Microbicidal activity of the myeloperoxidase system (p-MPO, glucose oxidase, glucose) with amino acids in the presence of blood, CFU plate counts; synergy determination from these CFU; format: cell-based; conditions: for Average Viability CFU/ml 60 min / Log 10 (CFU + 1) Survivors 60 min / Log Reduction 60 min: MPO 38 U/ml, GO 33.3 U/ml; for Average Viability CFU/ml 50 min / Log Reduction 50 min: MPO 4.7 U/ml, GO 4.2 U/ml
How it was run: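 Microbicidal activity of the MPO–glucose oxidase–glucose system against S. aureus with amino acids was assessed in 3% whole blood. Reactions of 1 mL were run at room temperature or 37° C and stopped with catalase. Surviving CFU were counted on trypticase soy agar. For each pair, Actual CFU was divided by Predicted CFU and multiplied by 100. This value was compared with variability-based thresholds to classify synergism, antagonism or additivity.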

Bacillus subtilis spores = test: Myeloperoxidase system with beta alanine and L-alanine against spores in the presence of blood; format: cell-based; conditions: 2 hours, MPO 25 μg/mL (9.4 U/mL), GO 8.3 U/mL
Procedure: The effect of a two-way combination of beta alanine and L-alanine, as potential enhancing agents, for MPO microbicidal action against Bacillus subtilis spores in the presence of blood, was determined following the procedure of Example 2. However, in this case each test contained a single low concentration of MPO (25 μg/mL or 9.4 U/mL) and glucose oxidase (8.3 U/mL). […] The effect of both L-alanine and beta alanine alone on the myeloperoxidase antimicrobial activity against Bacillus subtilis spores was tested for comparison.
The nature of the relationship between beta alanine and L-alanine was examined following the synergy determination method described above.

Staphylococcus aureus [2] = test: Control: microbicidal activity of the amino acid or analogue alone (no glucose, MPO, glucose oxidase) in the presence of blood; format: cell-based; conditions: for log reduction at 5000 µM: Staphylococcus aureus, 1 h, read-out: Log Reduction 60 min
Description: As a control to determine the microbicidal activity of the amino acids alone, the foregoing procedure was followed without replication, except in the absence of glucose, MPO, and glucose oxidase.

S. aureus = test: MIC, modified CLSI broth microdilution; format: cell-based, Staphylococcus aureus; conditions: S. aureus ATCC 29213; inoculum prepared in Diluent solution
Description: (§1) All clinical isolates were obtained from the culture collection of Eurofins Medinet Anti-Infective Services (Herndon, Va.), and represent diverse geographical regions. They were originally derived from clinical specimens and identified using standard microbiological methods (see Table 33 below for details). Escherichia coli ATCC 25922, Staphylococcus aureus ATCC 25923, S. aureus ATCC 29213, Pseudomonas aeruginosa ATCC 27853, and Enterococcus faecalis ATCC 29212 were used as quality control strains for the Enhanced MPO Solution and comparator agents to validate the modified Clinical and Laboratory Standards Institute (CLSI, formally NCCLS) broth microdilution method.
(§2) Modifications were made to the standard broth microdilution method to accommodate the rapid in vitro activity of the Enhanced MPO Solution as described below. Each antimicrobial agent and Concentrate solution was diluted in double strength cation-adjusted Mueller-Hinton Broth (CAMHB) and dispensed in mircrodilution trays. All β-hemolytic streptococci were tested in double strength CAMHB supplemented with 5% lysed horse blood. Isolates were prepared by suspending several colonies (four to six) from an overnight culture on Trypticase Soy Agar (TSA) with 5% sheep blood into sterile saline and the density adjusted to a 0.5 McFarland standard (˜10^8 CFU/ml). Standardized bacterial suspensions were further diluted in double strength Diluent solution so that approximately 5×10^5 CFU/ml was mixed with serial drug dilutions. The addition of Diluent solution to the Concentrate solution activates the enzyme system, which in turn exerts its rapid mode of action. The microdilution trays were incubated in ambient air at 35° C. for 18 to 24 h.
(§3) MIC ranges were established for the Enhanced MPO Solution by testing over 20 replicates of one lot of the Enhanced MPO Solution against S. aureus ATCC 29213 and E. coli ATCC 25922. Quality control parameters were then determined for the Enhanced MPO Solution by testing three lots of the Concentrate solution used for preparation of the final Enhanced MPO Solution formulation. Testing was performed in duplicate against S. aureus ATCC 29213 and E. coli ATCC 25922. The effects of modifying the standard broth microdilution test were also assessed with antibiotics with known quality control limits to validate the CLSI broth microdilution method.

E. coli = test: MIC, modified CLSI broth microdilution; format: cell-based, Escherichia coli; conditions: E. coli ATCC 25922; inoculum prepared in Diluent solution
Description: as §1, §2, §3

[3] = MPO 100 μg/mL, AA 20 mM, 30 min
[4] = MPO 100 μg/mL, AA 20 mM, 60 min
[5] = Table 2, amino acid 5 mM (none: 0 mM), blood
[6] = Table 10, single amino acid 2.5 mM, in the presence of blood, 50 min
[7] = Table 13, single amino acid 2.5 mM, in the presence of blood, 50 min
[8] = Table 14, single amino acid 2.5 mM, in the presence of blood, 50 min
[9] = amino acid alone 5 mM, MPO 0, GO 0, no glucose, blood, without replication
[10] = Table 7, amino acid analogue 5 mM, blood
[11] = amino acid analogue alone 5 mM, MPO 0, GO 0, no glucose, blood
[12] = Table 3, amino acid 5 mM (none: 0 mM), blood
[13] = Table 19, amino acid (racemic, L- or D-form) 2.5 mM, 50 min
[14] = single amino acid 2.5 mM, blood

SMILES | Log 10 (CFU + 1) Survivors (Staphylococcus aureus [1]; MPO 25 μg/mL, AA 5 mM, 30 min) | Log 10 (CFU + 1) Survivors (Staphylococcus aureus [1]; MPO 25 μg/mL, AA 5 mM, 60 min) | Log 10 (CFU + 1) Survivors (Staphylococcus aureus [1]; MPO 25 μg/mL, AA […], 30 min) | Log 10 (CFU + 1) Survivors (Staphylococcus aureus [1]; MPO 25 μg/mL, AA […], 60 min) | Log 10 (CFU + 1) Survivors (Staphylococcus aureus [1]; MPO 100 μg/mL, AA 5 mM, 30 min) | Log 10 (CFU + 1) Survivors (Staphylococcus aureus [1]; MPO 100 μg/mL, AA 5 mM, 60 min) | Log 10 (CFU + 1) Survivors (Staphylococcus aureus [1]; [3]) | Log 10 (CFU + 1) Survivors (Staphylococcus aureus [1]; [4]) | Average Viability CFU/ml 60 min (Staphylococcus aureus [1]; [5]) [CFU/ml] | Log 10 (CFU + 1) Survivors 60 min (Staphylococcus aureus [1]; [5]) | Log Reduction 60 min (Staphylococcus aureus [1]; [5]) | log reduction at 5000 µM (Staphylococcus aureus [2]; [9]) | Average Viability CFU/ml 60 min (Staphylococcus aureus [2]; [9]) [CFU/ml] | also measured
C[C@H](N)C(=O)O [L-Alanine] | 6.9 | 4.1 | 7.0 | 4.7 | 5.1 | 0.0 | 6.1 | 0.0 | 7 | 0.9 | 6.5 | 0 | 24100000 | Average Viability CFU/ml 50 min (Staphylococcus aureus [1]; [6]): 9750000 CFU/ml; Log Reduction 50 min (Staphylococcus aureus [1]; [6]): 0.4; Average Viability CFU/ml 50 min (Staphylococcus aureus [1]; [7]): 2230000 CFU/ml; Log Reduction 50 min (Staphylococcus aureus [1]; [7]): 1.0; Average Viability CFU/ml 50 min (Staphylococcus aureus [1]; [8]): 2215000 CFU/ml; Log Reduction 50 min (Staphylococcus aureus [1]; [8]): 1.1; CFU survivors (Bacillus subtilis spores): 520000 CFU; log reduction (Bacillus subtilis spores): 1.5 log
N[C@@H](CO)C(=O)O [L-Serine] | 5.0 | 0.0 | 6.8 | 1.8 | 5.0 | 0.0 | 5.8 | 0.0 | 0 | 0.0 | 7.4 | 0 | 24100000 | Average Viability CFU/ml 50 min (Staphylococcus aureus [1]; [6]): 1175000 CFU/ml; Log Reduction 50 min (Staphylococcus aureus [1]; [6]): 1.3; Average Viability CFU/ml 50 min (Staphylococcus aureus [1]; [7]): 835000 CFU/ml; Log Reduction 50 min (Staphylococcus aureus [1]; [7]): 1.5; Average Viability CFU/ml 50 min (Staphylococcus aureus [1]; [8]): 940000 CFU/ml; Log Reduction 50 min (Staphylococcus aureus [1]; [8]): 1.5
C[C@@H](O)[C@H](N)C(=O)O [L-Threonine] | 7.3 | 7.1 | 7.3 | 6.7 | 7.1 | 5.5 | 7.3 | 7.3 | 630000 | 5.8 | 1.6 | 0 | 23300000 | Average Viability CFU/ml 50 min (Staphylococcus aureus [1]; [7]): 1415000 CFU/ml; Log Reduction 50 min (Staphylococcus aureus [1]; [7]): 1.2
N[C@@H](Cc1c[nH]c2ccccc12)C(=O)O [L-Tryptophan] | – | – | – | – | – | – | – | – | 21150000 | 7.3 | 0.1 | – | 21600000 | log reduction at 5000 µM (Staphylococcus aureus [2]): 0
COC(=O)[C@@H](N)Cc1ccc(O)cc1.Cl [L-Tyrosine methyl ester hydrochloride] | – | – | – | – | – | – | – | – | – | – | – | – | – | Average Viability CFU/ml 60 min (Staphylococcus aureus [1]; [10]): 87000 CFU/ml; Log Reduction 60 min (Staphylococcus aureus [1]; [10]): 2.4; log reduction at 5000 µM (Staphylococcus aureus [2]; [11]): 0; Average Viability CFU/ml 60 min (Staphylococcus aureus [2]; [11]): 20900000 CFU/ml
N[C@@H](Cc1ccc(O)cc1)C(=O)O [L-Tyrosine] | 7.3 | 7.1 | 7.3 | 7.0 | 7.3 | 5.8 | 7.3 | 7.2 | – | – | – | 0 | 21600000 | Average Viability CFU/ml 60 min (Staphylococcus aureus [1]; [12]): 630000 CFU/ml; Log 10 (CFU + 1) Survivors 60 min (Staphylococcus aureus [1]; [12]): 5.8; Log Reduction 60 min (Staphylococcus aureus [1]; [12]): 1.5; Average Viability CFU/ml 50 min (Staphylococcus aureus [1]; [7]): 890000 CFU/ml; Log Reduction 50 min (Staphylococcus aureus [1]; [7]): 1.4; Average Viability CFU/ml 50 min (Staphylococcus aureus [1]; [8]): 1450000 CFU/ml; Log Reduction 50 min (Staphylococcus aureus [1]; [8]): 1.3
CCOC(=O)[C@@H](N)C(C)C.Cl [L-Valine ethyl ester hydrochloride] | – | – | – | – | – | – | – | – | – | – | – | – | – | Average Viability CFU/ml 60 min (Staphylococcus aureus [1]; [10]): 0 CFU/ml; Log Reduction 60 min (Staphylococcus aureus [1]; [10]): 7.4; log reduction at 5000 µM (Staphylococcus aureus [2]; [11]): 0; Average Viability CFU/ml 60 min (Staphylococcus aureus [2]; [11]): 22300000 CFU/ml
CC(C)[C@H](N)C(=O)O [L-Valine] | 4.7 | 0.0 | 4.8 | 0.0 | 0.0 | 0.0 | 0.0 | 0.0 | 0 | 0.0 | 7.4 | 0 | 23100000 | Average Viability CFU/ml 50 min (Staphylococcus aureus [1]; [6]): 104500 CFU/ml; Log Reduction 50 min (Staphylococcus aureus [1]; [6]): 2.4; Average Viability CFU/ml 50 min (Staphylococcus aureus [1]; [13]): 104500 CFU/ml; Log Reduction 50 min (Staphylococcus aureus [1]; [13]): 2.4; Average Viability CFU/ml 50 min (Staphylococcus aureus [1]; [14]): 104500 CFU/ml; Log Reduction 50 min (Staphylococcus aureus [1]; [14]): 2.4
O=C(O)c1cccnc1 [Nicotinic acid] | – | – | – | – | – | – | – | – | – | – | – | 0 | 23200000 | Average Viability CFU/ml 60 min (Staphylococcus aureus [1]; [12]): 4150000 CFU/ml; Log 10 (CFU + 1) Survivors 60 min (Staphylococcus aureus [1]; [12]): 6.6; Log Reduction 60 min (Staphylococcus aureus [1]; [12]): 0.7
O=C(O)C1CCCNC1 (stereo not drawn) [Nipecotic acid] | – | – | – | – | – | – | – | – | – | – | – | – | – | Log Reduction 60 min (Staphylococcus aureus [1]; [10]): 7.4; log reduction at 5000 µM (Staphylococcus aureus [2]): 0
CC(=O)C(=O)O [Pyruvic acid] | – | – | – | – | – | – | – | – | – | – | – | 0 | 22100000 | Average Viability CFU/ml 60 min (Staphylococcus aureus [1]; [12]): 4900000 CFU/ml; Log 10 (CFU + 1) Survivors 60 min (Staphylococcus aureus [1]; [12]): 6.7; Log Reduction 60 min (Staphylococcus aureus [1]; [12]): 0.6
CNCC(=O)OC.Cl [Sarcosine methyl ester hydrochloride] | – | – | – | – | – | – | – | – | – | – | – | – | – | Average Viability CFU/ml 60 min (Staphylococcus aureus [1]; [10]): 0 CFU/ml; Log Reduction 60 min (Staphylococcus aureus [1]; [10]): 7.4; log reduction at 5000 µM (Staphylococcus aureus [2]; [11]): 0; Average Viability CFU/ml 60 min (Staphylococcus aureus [2]; [11]): 23200000 CFU/ml
NCCS(=O)(=O)O [Taurine] | 7.3 | 7.0 | 7.3 | 7.1 | 7.3 | 5.0 | 7.3 | 5.1 | – | – | – | 0 | 21600000 | Average Viability CFU/ml 60 min (Staphylococcus aureus [1]; [12]): 830000 CFU/ml; Log 10 (CFU + 1) Survivors 60 min (Staphylococcus aureus [1]; [12]): 5.9; Log Reduction 60 min (Staphylococcus aureus [1]; [12]): 1.4
Cc1nnc(SCC2=C(C(=O)O)N3C(=O)[C@@H](NC(=O)Cn4cnnn4)[C@H]3SC2)s1 [cefazolin] | – | – | – | – | – | – | – | – | – | – | – | – | – | MIC by the modified method versus published quality control ranges (S. aureus): within previously published quality control ranges; MIC by the modified method versus published quality control ranges (E. coli): within previously published quality control ranges
